# According to ChEMBL document CHEMBL1201862, “PubChem BioAssay data set” (2004):
# The source made the active and inactive calls.
# Tests used:
# [1] = Luminescence Cell-Based Dose Retest to Confirm Inhibitors of Cancer Stem Cells. [Related pubchem assays (depositor defined):AID2717, AID2721]; type: functional; conditions: Homo sapiens
# [2] = molecular target: T1, Heat shock factor protein 1 (Mus musculus, UniProt P38532); assay: enhancement of HSF1-driven luciferase signal – cell-based, NIH3T3, luminescence, dose retest, confirmation (AID 435004); type: functional;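 note: stress induced by proteasome inhibitor MG132 added 30 min after compound; luciferase reporter driven by HSF1 response element in NIH3T3 cells; actives raise luminescence as potentiators of the MG132 stress response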
# T1 sequence (P38532 whole entry): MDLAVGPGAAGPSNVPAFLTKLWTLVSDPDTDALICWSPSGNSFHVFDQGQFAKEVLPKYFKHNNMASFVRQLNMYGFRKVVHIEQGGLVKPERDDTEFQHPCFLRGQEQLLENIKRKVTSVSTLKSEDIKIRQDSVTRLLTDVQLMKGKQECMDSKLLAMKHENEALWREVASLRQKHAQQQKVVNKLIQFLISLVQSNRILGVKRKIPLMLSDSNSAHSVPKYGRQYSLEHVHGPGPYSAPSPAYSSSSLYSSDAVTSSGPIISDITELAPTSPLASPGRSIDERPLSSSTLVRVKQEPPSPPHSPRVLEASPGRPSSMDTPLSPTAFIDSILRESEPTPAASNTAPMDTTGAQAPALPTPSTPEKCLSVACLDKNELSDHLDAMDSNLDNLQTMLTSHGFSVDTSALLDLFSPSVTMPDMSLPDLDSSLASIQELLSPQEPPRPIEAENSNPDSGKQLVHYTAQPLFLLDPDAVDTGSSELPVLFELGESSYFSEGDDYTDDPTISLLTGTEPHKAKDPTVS
# [3] = fluconazole-exposed Candida albicans growth modulators – fluorescence, retest, confirmation (AID 2467); type: functional, cell-based
# [4] = NIH-3T3 fibroblast cytotoxicity, dose response, cytotoxicity control, cell-based, fluorescence, Alamar Blue, secondary assay (AID 2327); type: functional;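 note: NIH-3T3 mouse fibroblasts cultured with fluconazole at 8 µg/mL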
# [5] = viability of uninfected HEp-2 cells – cell-based, HTS, cytotoxicity control for RSV inhibitor project, dose response (AID 2410); type: functional; conditions: human respiratory syncytial virus
# [6] = molecular target: T1, Heat shock factor protein 1; assay: decrease of HSF1-responsive luciferase luminescence – cell-based, NIH3T3, dose retest, confirmation (AID 2382); type: functional;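 note: NIH3T3 fibroblasts with HSF1-driven luciferase reporter stressed by proteasome inhibitor MG132; luminescence from HSF1-driven luciferase expression after 8 hours of MG132 stress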
# [7] = Luminescence Cell-Based Dose Response HTS to Identify Activators of Luciferase Translation or Activity in H4 […] Cells. [Related pubchem assays: 1829 (Project Summary), 1814 (Primary HTS)]; type: functional
# H4 = assay: Luminescence Cell-Based Dose Response HTS to Identify Activators of 5'UTR Stem-Loop Driven Prion Protein mRNA Translation in H4 Neuroglioblastoma Cells. [Related pubchem assays: 1829 (Project Summary), 1814 (Primary HTS)]; type: functional; conditions: Homo sapiens
# [8] = reduction of Shn3 3'UTR-driven luciferase in osteoblasts – cell-based, Clone20 osteoblasts, firefly luciferase, cherry-picked, dose response (AID 624132); type: functional;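 note: firefly luciferase luminescence from reporter carrying the Shn3 3'UTR in osteoblasts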
# [9] = non-specific 3'UTR reporter inhibition in Clone20-Shn3RL – cell-based, Renilla luciferase, cherry-picked, counter-screen for Shn3 inhibitor project, dose response (AID 624133); type: functional
# [10] = test system: Streptococcus sp. 'group A'; assay: Streptococcus pyogenes SK(-)GAS viability under kanamycin – luminescence, BacTiterGlo, confirmation, counter-screen for streptokinase expression inhibitor project, dose response (AID 1900); type: functional, organism-based
# Streptokinase A = molecular target: T2, Streptokinase A (Streptococcus pyogenes serotype M1, UniProt P10520); assay: viability-normalized secreted streptokinase activity reduction – plasminogen activation absorbance, OD405, dose response (AID 1914); type: functional, Streptococcus pyogenes M1 GAS;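 note: secreted streptokinase activity via plasminogen activation per viability signal from cell pellet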
# T2 sequence (P10520 whole entry): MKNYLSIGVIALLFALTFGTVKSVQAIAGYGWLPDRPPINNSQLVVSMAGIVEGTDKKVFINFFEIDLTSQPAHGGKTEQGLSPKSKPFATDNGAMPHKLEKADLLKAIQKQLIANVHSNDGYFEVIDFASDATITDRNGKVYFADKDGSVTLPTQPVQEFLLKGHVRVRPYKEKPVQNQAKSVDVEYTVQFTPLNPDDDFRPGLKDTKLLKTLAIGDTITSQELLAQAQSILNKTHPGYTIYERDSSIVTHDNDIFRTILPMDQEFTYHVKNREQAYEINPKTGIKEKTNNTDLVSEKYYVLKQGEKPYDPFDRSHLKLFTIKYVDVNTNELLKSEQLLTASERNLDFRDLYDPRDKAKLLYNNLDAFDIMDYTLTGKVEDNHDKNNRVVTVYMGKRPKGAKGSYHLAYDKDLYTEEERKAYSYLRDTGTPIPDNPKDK
# Streptococcus = assay: GAS UMAA2166 growth inhibition – luminescence, BacTiterGlo, counter-screen for streptokinase expression inhibitor project, dose response (AID 1915); type: functional, organism-based;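 note: potency for reduction of bacterial viability or growth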
# [11] = loss of viability in HepG2 cells – cell-based, CellTiter-Glo, cherry-picked, cytotoxicity control for Shn3 inhibitor project, dose response (AID 624134); type: functional
# [12] = Luminescence Cell-Based Dose Confirmation HTS to Identify Inhibitors of Platelet Dense Granule Release. [Related pubchem assays: 1663 (Primary HTS), 1678 (Summary of Project)]; type: functional
# [13] = molecular target: Luciferin 4-monooxygenase (Photinus pyralis, UniProt P08659); assay: inhibition of purified Photinus pyralis luciferase – biochemical, luminescence, dose response (AID 1891)
# Cytochrome P450 2C9 = Cytochrome P450 2C9 (Homo sapiens, UniProt P11712)
# Cytochrome P450 3A4 = Cytochrome P450 3A4 (Homo sapiens, UniProt P08684);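 note: CYP3A4 tested as one member of a cytochrome P450 panel screen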
# Cytochrome P450 2C19 = Cytochrome P450 2C19 (Homo sapiens, UniProt P33261); assay: Cytochrome panel assay with activity outcomes. Panel member name: p450-cyp2c19 Compounds with AC50 equal or less than 10 uM are considered active; type: functional; conditions: read-out: AC50
# [14] = NIH3T3 cell viability loss – ATP luminescence, mouse fibroblasts, counter-screen, dose response (AID 2010); type: functional, cell-based;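 note: cells exposed to compound for about 90 hours before reading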
# [15] = Trypanosoma cruzi growth suppression in host cells – NIH3T3 host cells, beta-gal luminescence, confirmation (AID 2044); type: functional, cell-based;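 note: intracellular parasites grown in NIH/3T3 mouse fibroblasts as host cells; luminescent beta-galactosidase reporter signal from transgenic T. cruzi replicating inside host cells; inhibitors lower the luminescence signal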
# Sequence of Luciferin 4-monooxygenase (P08659 whole entry): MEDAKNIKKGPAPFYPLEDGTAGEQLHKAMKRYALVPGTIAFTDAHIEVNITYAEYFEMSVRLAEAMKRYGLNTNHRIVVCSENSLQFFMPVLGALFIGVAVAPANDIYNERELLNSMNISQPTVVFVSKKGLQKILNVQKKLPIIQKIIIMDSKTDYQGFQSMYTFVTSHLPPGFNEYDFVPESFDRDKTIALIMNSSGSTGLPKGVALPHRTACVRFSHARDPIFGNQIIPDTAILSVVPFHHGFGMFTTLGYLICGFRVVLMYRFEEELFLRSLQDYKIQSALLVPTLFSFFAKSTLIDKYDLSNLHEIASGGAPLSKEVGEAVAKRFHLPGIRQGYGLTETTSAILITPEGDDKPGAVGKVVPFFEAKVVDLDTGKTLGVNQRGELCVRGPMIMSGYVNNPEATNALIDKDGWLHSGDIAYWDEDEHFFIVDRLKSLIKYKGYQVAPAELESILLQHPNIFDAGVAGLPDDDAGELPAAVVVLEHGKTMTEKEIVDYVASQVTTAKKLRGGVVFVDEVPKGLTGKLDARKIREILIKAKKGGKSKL
# Sequence of Cytochrome P450 2C9 (P11712 whole entry): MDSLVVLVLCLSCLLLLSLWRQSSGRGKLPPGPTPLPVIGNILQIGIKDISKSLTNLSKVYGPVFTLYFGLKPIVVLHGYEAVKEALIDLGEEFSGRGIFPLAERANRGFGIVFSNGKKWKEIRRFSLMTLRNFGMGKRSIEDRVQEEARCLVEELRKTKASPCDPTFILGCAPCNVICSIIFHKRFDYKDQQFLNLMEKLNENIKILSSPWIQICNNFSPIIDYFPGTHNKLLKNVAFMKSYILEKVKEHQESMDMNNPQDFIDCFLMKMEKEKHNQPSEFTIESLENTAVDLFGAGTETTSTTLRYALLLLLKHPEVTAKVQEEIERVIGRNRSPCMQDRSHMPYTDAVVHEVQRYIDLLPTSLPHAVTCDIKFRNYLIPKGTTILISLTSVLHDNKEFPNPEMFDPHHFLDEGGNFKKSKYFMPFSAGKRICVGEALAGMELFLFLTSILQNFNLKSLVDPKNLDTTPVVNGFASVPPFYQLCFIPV
# Sequence of Cytochrome P450 2C19 (P33261 whole entry): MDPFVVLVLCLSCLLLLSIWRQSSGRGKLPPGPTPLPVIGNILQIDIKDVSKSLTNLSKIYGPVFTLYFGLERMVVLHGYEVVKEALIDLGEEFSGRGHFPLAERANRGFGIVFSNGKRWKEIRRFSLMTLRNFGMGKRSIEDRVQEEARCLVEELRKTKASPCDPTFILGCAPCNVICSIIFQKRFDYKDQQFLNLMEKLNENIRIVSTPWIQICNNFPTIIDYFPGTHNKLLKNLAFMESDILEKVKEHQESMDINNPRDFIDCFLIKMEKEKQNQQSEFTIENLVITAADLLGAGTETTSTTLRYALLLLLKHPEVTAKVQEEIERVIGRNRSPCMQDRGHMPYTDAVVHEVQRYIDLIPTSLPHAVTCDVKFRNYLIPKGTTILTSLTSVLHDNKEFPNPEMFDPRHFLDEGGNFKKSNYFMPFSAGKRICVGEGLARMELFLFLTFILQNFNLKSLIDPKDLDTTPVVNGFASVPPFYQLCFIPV
# Sequence of Cytochrome P450 3A4 (P08684 whole entry): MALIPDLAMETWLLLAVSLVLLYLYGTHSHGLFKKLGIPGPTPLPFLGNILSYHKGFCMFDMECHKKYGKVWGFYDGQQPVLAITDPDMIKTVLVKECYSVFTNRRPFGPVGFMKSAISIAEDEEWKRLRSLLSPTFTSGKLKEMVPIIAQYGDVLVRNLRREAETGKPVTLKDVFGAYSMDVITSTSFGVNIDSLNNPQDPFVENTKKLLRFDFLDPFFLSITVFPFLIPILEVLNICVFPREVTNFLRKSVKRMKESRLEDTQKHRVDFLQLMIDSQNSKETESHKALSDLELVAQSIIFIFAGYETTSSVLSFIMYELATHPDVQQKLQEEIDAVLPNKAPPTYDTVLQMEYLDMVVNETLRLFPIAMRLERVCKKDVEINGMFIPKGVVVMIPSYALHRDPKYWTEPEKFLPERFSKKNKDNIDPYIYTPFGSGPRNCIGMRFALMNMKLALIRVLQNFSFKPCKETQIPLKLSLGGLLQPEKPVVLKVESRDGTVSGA
compound,measurement,setting,value
Cc1ccc(NNC(=O)c2cccs2)cc1Cl,AC50,[1],1.96 µM (active)
same,EC50,[2],> 260 µM (inactive)
same,EC50,[3],1.62 µM (active)
same,EC50,[4],29.6 µM (active)
Cc1cc(-c2ccc(NC(=O)[C@@H]3CCCC[C@@H]3C(=O)O)c(C)c2)ccc1NC(=O)[C@@H]1CCCC[C@@H]1C(=O)O,CC50,[5],17.9 µM (active)
CC1CC1C(=O)OCC(=O)NCc1ccc(Cl)cc1Cl (stereo not given),EC50,[6],> 195 µM (not active)
CCc1nnc(NC(=O)Cn2ccc(C(F)(F)F)n2)s1,EC50,[3],> 38 µM (not active)
same,EC50,[4],> 150 µM (inactive)
CC1(C)CC(N/C=C2/C(=O)N(Cc3ccc4c(c3)OCO4)C(=O)c3ccccc32)CC(C)(C)N1,EC50,[3],5.68 µM (active)
same,EC50,[4],> 160 µM (inactive)
Cc1csc(NC(=O)Nc2ccccc2[N+](=O)[O-])n1,EC50,[7],12.5 µM (active)
same,EC50,H4,94 µM (active)
COC(=O)C1=C(c2ccc(OCc3ccccc3)cc2)C[C@@H]2CC[C@H]1N2C(=O)NCc1ccc(OC)c(OC)c1,AC50,[8],19.7 µM (active)
same,AC50,[9],30.1 µM (active)
COc1cc(C(=O)OCc2cc(=O)c(O)co2)ccc1OC(F)F,EC50,[3],> 38 µM (not active)
same,EC50,[4],> 160 µM (inactive)
Cc1ccc(CN2CN(S(=O)(=O)c3cccs3)c3nc4ccccc4nc32)cc1,EC50,[10],56 µM (active)
same,EC50,Streptokinase A,> 150 µM (not active)
same,EC50,Streptococcus,63.7 µM (active)
COc1ccccc1-c1cc(C(=O)N2CCN(c3ccccc3)CC2)no1,CC50,[5],31.9 µM (active)
O=C(C1CCC(CNS(=O)(=O)c2cccs2)CC1)N1CCN(c2ccc(Cl)cc2)CC1 (stereo not given),AC50,[11],2.76 µM (active)
same,AC50,[8],1.61 µM (active)
same,AC50,[9],16 µM (active)
Cc1nc(C(=O)NNC(=O)c2cccc(Cl)c2)c(C(F)(F)F)o1,EC50,[6],> 195 µM (not active)
Cc1ccc(S(=O)(=O)N2CCCC2C(=O)O)cc1 (stereo not given),EC50,[12],> 112 µM (not active)
same,EC50,[13],> 112 µM (not active)
COC(=O)c1ccc(CNC(=O)COC(=O)COc2ccc(OC)cc2)cc1,EC50,[6],> 195 µM (not active)
Cc1nc(SCC(=O)NCC2CCCO2)c2cc(-c3ccccc3)sc2n1 (stereo not given),CC50,[5],20.3 µM (active)
Cc1ccsc1C(=O)Nc1nc2ccccc2[nH]1,EC50,[12],4.71 µM (active)
same,EC50,[13],2.67 µM (active)
COc1ccc(O)c(CN2CCC(n3nccc3NC(=O)CCOc3ccccc3)CC2)c1,EC50,[10],> 150 µM (not active)
same,EC50,Streptokinase A,> 150 µM (not active)
same,EC50,Streptococcus,> 150 µM (not active)
COc1ccc(-c2nn(-c3ccccc3)cc2C(=O)O)cc1,EC50,[12],> 112 µM (not active)
same,EC50,[13],> 112 µM (not active)
Cc1ccc(NC(=O)c2sccc2C)nc1,EC50,[12],5.98 µM (active)
same,EC50,[13],13.9 µM (active)
CCCc1cc(O)nc(SCc2csc(-c3ccccc3)n2)n1,EC50,[3],2.81 µM (active)
same,EC50,[4],> 160 µM (inactive)
Cc1cccc(NC2(C(F)(F)F)N=C(c3ccccc3)NC2=O)n1 (stereo not given),AC50,Cytochrome P450 2C9,12.6 µM (inconclusive)
same,AC50,Cytochrome P450 3A4,15.8 µM (inconclusive)
same,EC50,[6],71.7 µM (active)
same,AC50,Cytochrome P450 2C19,8.91 µM (inconclusive)
Cc1nc2cc(NC(=O)Nc3cccc(F)c3)ccc2n1C,EC50,[12],7.45 µM (active)
same,EC50,[13],5.89 µM (active)
O=C(Cc1ccccc1)NCCS(=O)(=O)N1CCN(c2ccccc2)CC1,EC50,[10],> 150 µM (not active)
same,EC50,Streptokinase A,> 150 µM (not active)
same,EC50,Streptococcus,> 150 µM (not active)
Cc1cc(-c2cc(C(=O)O)c3ccccc3n2)c(C)s1,EC50,[3],3.94 µM (active)
same,EC50,[4],> 160 µM (inactive)
O=C(CSc1nnc2ccccn12)NNC(=O)c1ccc([N+](=O)[O-])cc1,EC50,[12],> 112 µM (not active)
same,EC50,[13],> 112 µM (not active)
CNc1ccc(OC)cc1-n1cnc(-c2ccc([N+](=O)[O-])cc2)c1,EC50,[3],> 38 µM (not active)
same,EC50,[4],> 150 µM (inactive)
Clc1cccc(-c2nn3c(Cn4cnc5ccccc54)nnc3s2)c1,CC50,[5],> 50 µM (active)
Cc1ccccc1-n1c(C)nc2ccccc21,EC50,[6],> 195 µM (not active)
O=C(COC(=O)CNC(=O)c1ccccc1F)Nc1cccnc1Cl,EC50,[6],> 195 µM (not active)
Cc1ccc(N2C(=O)NC(NS(=O)(=O)c3ccccc3)(C(F)(F)F)C2=O)cc1 (stereo not given),EC50,[6],> 195 µM (not active)
CCC(C(=O)OCC(=O)Nc1cc(Cl)ccc1Cl)c1ccccc1 (stereo not given),EC50,[6],> 195 µM (not active)
Cc1ccccc1N=C(S)c1ccc2ccccc2n1,EC50,[12],> 112 µM (not active)
same,EC50,[13],> 112 µM (not active)
COC(=O)c1c(-c2cccc3ccccc23)csc1NC(=O)Cc1ccc(OC)c(OC)c1,AC50,[11],> 70 µM (inactive)
same,AC50,[8],5.43 µM (active)
same,EC50,[12],> 112 µM (not active)
same,EC50,[14],12.6 µM (active)
same,EC50,[15],2.49 µM (active)
same,AC50,[9],16.9 µM (active)
same,EC50,[13],> 112 µM (not active)
CCN(CC)CCN(C(=O)CCS(=O)(=O)c1ccccc1)c1nc2cc(C)cc(C)c2s1,EC50,[10],> 150 µM (not active)
same,EC50,[14],> 30 µM (not active)
same,EC50,[15],0.697 µM (active)
same,EC50,Streptokinase A,> 150 µM (not active)
same,EC50,Streptococcus,> 150 µM (not active)
CNC(=O)/C(C#N)=C\c1cc(C)n(-c2ccc(N3CCOCC3)cc2)c1C,EC50,[10],30.4 µM (active)
same,EC50,Streptokinase A,> 150 µM (not active)
same,EC50,Streptococcus,98.2 µM (active)
CCOC(=O)C1=C(c2ccccc2)N=C(S)NC1c1cc([N+](=O)[O-])ccc1OC (stereo not given),CC50,[5],> 50 µM (active)
N#C/C(=C(/O)c1ccco1)c1nc2ccccc2[nH]1,EC50,[3],4.11 µM (active)
same,EC50,[4],> 150 µM (inactive)
Nc1nc2sc3c(c2cc1C(=O)N1CCOCC1)CCCC3,EC50,[12],> 112 µM (not active)
same,EC50,[13],> 112 µM (not active)
Cc1ccc(Cn2ccc(=O)c(OCc3c(Cl)cccc3Cl)c2C)cc1,EC50,[10],6.66 µM (active)
same,AC50,[11],60.6 µM (active)
same,AC50,[8],6.11 µM (active)
same,AC50,[9],6.57 µM (active)
same,EC50,Streptokinase A,13.7 µM (active)
same,EC50,Streptococcus,> 150 µM (not active)
CCc1ccc2oc(-c3cc(N)ccc3Cl)nc2c1,CC50,[5],41.3 µM (active)
CCOc1cccc(-c2c(C(=O)N/N=C/c3ccco3)nnn2-c2nonc2N)c1,EC50,[12],14.8 µM (active)
same,EC50,[13],> 112 µM (not active)
Clc1ccc(-c2cs/c(=N\c3cccnc3)n2CCCn2ccnc2)cc1Cl,CC50,[5],15.4 µM (active)
Cc1ccccc1/C=N/NC1=NC(=O)CCS1,CC50,[5],26.4 µM (active)
NC(=O)CN1CCCC1=O,EC50,[6],> 195 µM (not active)
Nc1ncnc2c1ncn2[C@@H]1O[C@H](CO)C[C@H]1O [CORDYCEPIN],EC50,[3],4.1 µM (active)
same,EC50,[4],> 150 µM (inconclusive)
